≈ marks a conversion by molar mass, not a printed value.
Experiments:
[1] = tested on: Enterococcus sp.; assay: in vitro antibacterial evaluation, MIC by broth dilution; format: cell-based; conditions: broth dilution, 18 hours at 35° C.
Method in brief: (§1)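 Inoculum 5×10^5 CFU/mL; concentrations 64 to 0.06 μg/mL; MIC defined as lowest inhibitory level. Conducted by broth dilution under NCCLS guidelines.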

[2] = tested on: Staphylococcus sp.; assay: as above; format: cell-based; conditions: broth dilution, 18 hours at 35° C.
Method in brief: as §1

[3] = tested on: Streptococcus sp.; assay: as above; format: cell-based; conditions: broth dilution, 18 hours at 35° C.
Method in brief: as §1

[4] = anatomic pathology (histopathology of heart and kidney) in mice; format: in vivo; conditions: CD-1 mice, 20 mg/kg intravenously daily for 9 days, necropsy day 10, microscopic histopathology
Protocol: Samples of tissues from necropsied mice were formalin-fixed, paraffin-embedded, sectioned, stained with hematoxylin and eosin, and examined microscopically. Histopathologic findings were recorded. These findings were subjectively graded on a scale corresponding to slight, mild, moderate, marked and severe as compared to untreated controls.

[5] = tested on: Escherichia coli; assay: in vitro antibacterial evaluation, MIC by broth dilution; format: cell-based; conditions: 18 hours at 35° C.
Method in brief: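 Broth dilution in Muller-Hinton II medium per NCCLS standard M7-A2, with an inoculum of 5×10^5 CFU/mL and antibiotic tested over 64-0.06 μg/mL. MIC was taken as the lowest concentration inhibiting visible growth.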

MIC Enterococcus avium (GC 4558) ([1]; Enterococcus avium (GC 4558)): 128 µg/mL (≈ 92.4 µM)
MIC Enterococcus faecalis (ATCC 29212) ([1]; Enterococcus faecalis (ATCC 29212)): >128 µg/mL
MIC Enterococcus faecalis (GC 4552) ([1]; Enterococcus faecalis (GC 4552)): >128 µg/mL
MIC Enterococcus faecalis (GC 4553) ([1]; Enterococcus faecalis (GC 4553)): >128 µg/mL
MIC Enterococcus faecalis (GC 4554) ([1]; Enterococcus faecalis (GC 4554)): >128 µg/mL
MIC Enterococcus faecalis (GC 6189) ([1]; Enterococcus faecalis (GC 6189)): >128 µg/mL
MIC Enterococcus faecium (GC 2243) ([1]; Enterococcus faecium (GC 2243)): >128 µg/mL
MIC Enterococcus faecium (GC 4556) ([1]; Enterococcus faecium (GC 4556)): >128 µg/mL
MIC Enterococcus faecium (GC 4557) ([1]; Enterococcus faecium (GC 4557)): 128 µg/mL (≈ 92.4 µM)
MIC Enterococcus avium (GC 4558) [1]: 128 µg/mL (≈ 92.4 µM)
MIC Enterococcus faecalis (ATCC 29212) [1]: >128 µg/mL
MIC Enterococcus faecalis (GC 2242) [1]: >128 µg/mL
MIC Enterococcus faecalis (GC 2691) [1]: >128 µg/mL
MIC Enterococcus faecalis (GC 3059) [1]: >128 µg/mL
MIC Enterococcus faecalis (GC 4552) [1]: >128 µg/mL
MIC Enterococcus faecalis (GC 4553) [1]: >128 µg/mL
MIC Enterococcus faecalis (GC 4554) [1]: >128 µg/mL
MIC Enterococcus faecalis (GC 6189) [1]: >128 µg/mL
MIC Enterococcus faecium (GC 2243) [1]: >128 µg/mL
MIC Enterococcus faecium (GC 4556) [1]: >128 µg/mL
MIC Enterococcus faecium (GC 4557) [1]: 128 µg/mL (≈ 92.4 µM)
MIC Enterococcus faecalis (GC 2242) ([1]; strain GC 2242): >128 µg/mL
MIC Enterococcus faecalis (GC 2691) ([1]; strain GC 2691): >128 µg/mL
MIC Enterococcus faecalis (GC 3059) ([1]; strain GC 3059): >128 µg/mL
MIC Staphylococcus aureus (ATCC 29213) ([2]; strain ATCC 29213): >128 µg/mL
MIC Staphylococcus aureus (GC 1131) ([2]; strain GC 1131): >128 µg/mL
MIC Staphylococcus aureus (GC 3051) ([2]; strain GC 3051): >128 µg/mL
MIC Staphylococcus aureus (GC 3053) ([2]; strain GC 3053): >128 µg/mL
MIC Staphylococcus aureus (GC 4541) ([2]; strain GC 4541): >128 µg/mL
MIC Staphylococcus aureus (GC 4542) ([2]; strain GC 4542): >128 µg/mL
MIC Staphylococcus aureus-SMITH (GC 4543) ([2]; strain GC 4543): >128 µg/mL
MIC Staphylococcus aureus (GC 4544) ([2]; strain GC 4544): >128 µg/mL
MIC Staphylococcus aureus (GC 4545) ([2]; strain GC 4545): >128 µg/mL
MIC Coagulase Negative Staphylococcus (GC 4547) ([2]; strain GC 4547): >128 µg/mL
MIC Coagulase Negative Staphylococcus (GC 4548) ([2]; strain GC 4548): >128 µg/mL
MIC Coagulase Negative Staphylococcus (GC 4549) ([2]; strain GC 4549): >128 µg/mL
MIC Coagulase Negative Staphylococcus (GC 4551) ([2]; strain GC 4551): >128 µg/mL
MIC Coagulase Negative Staphylococcus (GC 6257) ([2]; strain GC 6257): >128 µg/mL
MIC Streptococcus agalactiae (GC 4564) [3]: >128 µg/mL
MIC Streptococcus pneumoniae (ATCC 6301) [3]: 128 µg/mL (≈ 92.4 µM)
MIC Streptococcus pneumoniae (GC 1894) [3]: 64 µg/mL (≈ 46.2 µM)
MIC Streptococcus pneumoniae (GC 4565) [3]: 128 µg/mL (≈ 92.4 µM)
MIC Streptococcus pyogenes (GC 4563) [3]: >128 µg/mL
MIC Streptococcus pneumoniae (ATCC 6301) ([3]; strain ATCC 6301): 128 µg/mL (≈ 92.4 µM)
MIC Streptococcus pneumoniae (GC 1894) ([3]; strain GC 1894): 64 µg/mL (≈ 46.2 µM)
MIC Streptococcus pyogenes (GC 4563) ([3]; strain GC 4563): >128 µg/mL
MIC Streptococcus agalactiae (GC 4564) ([3]; strain GC 4564): >128 µg/mL
MIC Streptococcus pneumoniae (GC 4565) ([3]; strain GC 4565): 128 µg/mL (≈ 92.4 µM)
MIC Escherichia coli (ATCC 25922) [5]: >128 µg/mL
MIC Escherichia coli (GC 4559) [5]: >128 µg/mL
MIC Escherichia coli (GC 4560) [5]: >128 µg/mL
SMILES: CC(c1ccccc1)C1NC(=O)CNC(=O)C(CO)NC(=O)C(C(O)C2CN(Cc3ccccc3)C(=N)N2C2OC(CO)C(O)C(O)C2O)NC(=O)C(C(O)C2CNC(=N)N2)NC(=O)C(Cc2ccc(OC3OC(CO)C(OC4OC(CO)C(O)C(O)C4O)C(O)C3O)cc2)NC1=O (stereo not drawn) [Example 59, Cyclo[glycyl-β-methylphenylalanyl-O-(4-O-hexopyranosylhexopyranosyl)tyrosyl-(2-iminoimidazolidin-4-yl)seryl-3-[1-benzyl-3-hexopyranosyl-2-iminoimidazolidin-4-yl]serylseryl]]
MIC Staphylococcus haemolyticus (GC 4546) ([2]; strain GC 4546): >128 µg/mL
Anatomical Pathology (Day 10), Heart [4]: 0
Anatomical Pathology (Day 10), Kidney [4]: 0
